Results taken from ChEMBL document CHEMBL5674877, “PRMT5: A novel regulator of Hepatitis B virus replication and an arginine methylase of HBV core” (PLoS One, 2017).

Experiments:
Assay type in all cases: cell-based
[1] = target: Protein arginine N-methyltransferase 5 (Homo sapiens) (UniProt O14744); experiment: Inhibition of PRMT5 in human HepG2_hNTCP cells transfected with constant amounts of HBc-HA assessed as decrease in intensity of methylation of SmD3 at 0.5 to 500 nM incubated for 72 hrs by Western blot analysis; settings: HepG2-hNTCP, dose 0.5-500 nM
Chain of Protein arginine N-methyltransferase 5 (Homo sapiens) (O14744 whole entry): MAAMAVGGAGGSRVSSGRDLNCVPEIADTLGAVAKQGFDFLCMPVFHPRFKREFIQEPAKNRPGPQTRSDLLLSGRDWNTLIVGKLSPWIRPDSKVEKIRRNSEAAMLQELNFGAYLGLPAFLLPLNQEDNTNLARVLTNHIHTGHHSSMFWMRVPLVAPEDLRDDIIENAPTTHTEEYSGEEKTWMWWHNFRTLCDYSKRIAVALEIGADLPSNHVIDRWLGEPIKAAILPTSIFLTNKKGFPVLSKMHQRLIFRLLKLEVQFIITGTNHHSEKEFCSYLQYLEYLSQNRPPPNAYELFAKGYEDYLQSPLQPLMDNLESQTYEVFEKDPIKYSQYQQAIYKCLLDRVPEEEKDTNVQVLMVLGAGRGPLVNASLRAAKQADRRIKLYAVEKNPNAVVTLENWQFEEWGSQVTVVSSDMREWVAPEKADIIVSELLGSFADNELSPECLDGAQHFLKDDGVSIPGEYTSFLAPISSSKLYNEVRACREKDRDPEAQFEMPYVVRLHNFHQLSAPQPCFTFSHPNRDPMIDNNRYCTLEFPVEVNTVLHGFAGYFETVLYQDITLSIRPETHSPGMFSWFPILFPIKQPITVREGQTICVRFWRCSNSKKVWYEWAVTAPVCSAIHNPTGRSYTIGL

[2] = target: Protein arginine N-methyltransferase 5 (Homo sapiens) (UniProt O14744); experiment: Inhibition of PRMT5 in human HepG2_hNTCP cells transfected with constant amounts of HBc-HA assessed as reduction in symmetric arginine dimethylation of HBc at 0.5 to 500 nM incubated for 72 hrs by Western blot analysis; settings: HepG2-hNTCP, dose 0.5-500 nM
[3] = target: Protein arginine N-methyltransferase 5 (Homo sapiens) (UniProt O14744); experiment: Inhibition of PRMT5 in human HepG2_hNTCP cells transfected with constant amounts of HBc-HA assessed as reduction in symmetric arginine dimethylation of HBc at 5 nM incubated for 72 hrs by Western blot analysis relative to control; settings: HepG2-hNTCP
[4] = target: Protein arginine N-methyltransferase 5 (Homo sapiens) (UniProt O14744); experiment: Inhibition of PRMT5 in human HepG2_hNTCP cells transfected with constant amounts of HBc-HA assessed as decrease in intensity of methylation of SmB/B' at 0.5 to 500 nM incubated for 72 hrs by Western blot analysis; settings: HepG2-hNTCP, dose 0.5-500 nM

inhibition [1]: Dose-Dependent Effect
inhibition [2]: Dose-Dependent Effect
fold change (FC) [3]: 0.5
inhibition [4]: Dose-Dependent Effect
SMILES: O=C(NC[C@H](O)CN1CCc2ccccc2C1)c1ccnc(NC2CCC2)c1
